Assay results: US12617790B2, “Mitragynine analogs and uses thereof” (Memorial Sloan-Kettering Cancer Center, priority 2015, dated 2026)
Where two headings read alike, the source gives them in different places.

Assays:
[1] = test system: CD1 mice; assay: Radiant heat tail flick analgesia, icv, CD1 mice; type: in vivo, mouse; conditions: ED50, cumulative dose-response, tail flick 15 min after icv dose
[2] = test system: CD1 mice; assay: Radiant heat tail flick analgesia, sc, CD1 mice; type: in vivo; conditions: Mus musculus, 0.25 h, ED50, cumulative dose-response, tail flick 15 min after sc dose
[3] = molecular target: T1, MOR-1 (Mus musculus, UniProt P42866); assay: [35S]GTPγS functional assay, MOR-1 transfected cell membranes; type: biochemical; set-up: Emax: dose or concentration left out as unconfirmed; conditions: for Emax: read-out: MOR-1 Emax (%)
T1 construct: expressed in transfected cells; host or cells: CHO

[4] = test system: mice; assay: Antisense oligodeoxynucleotide downregulation, tail flick antinociception; type: in vivo, mouse; conditions: antisense icv days 1, 3, 5, test day 6; VM1501 1.0 mg/kg sc, VM1502 1.5 mg/kg sc
[5] = molecular target: T2, KOR-1 (Mus musculus, UniProt P33534); assay: [35S]GTPγS functional assay, KOR-1 transfected cell membranes; type: biochemical
T2 construct: expressed in transfected cells; host or cells: CHO

[6] = test system: mice; assay: Gastrointestinal motility assay (charcoal meal transit); conditions: 30 min
[7] = molecular target: T2, KOR-1; assay: Competition binding against 125I-IBNtxA in KOR-1/CHO membranes
[8] = molecular target: T1, MOR-1; assay: Competition binding against 125I-IBNtxA in MOR-1/CHO membranes
[9] = test system: CD1 mice; assay: Reversal of tail flick antinociception by selective opioid antagonists, CD1 mice; type: in vivo, mouse; conditions: VM1501 1.0 mg/kg sc, VM1502 1.5 mg/kg sc
[10] = test system: 129/Sv mice; assay: Tail flick antinociception icv in 129/Sv mice (wild type and Exon11 knockout); type: in vivo, mouse; conditions: 15 min
[11] = test system: CD1 mice; assay: Respiratory depression assessment (MouseOx pulse oximeter breath rate)
[12] = molecular target: T3, DOR-1 (Mus musculus, UniProt P32300); assay: Competition binding against 125I-IBNtxA in DOR-1/CHO membranes
T3 construct: expressed in transfected cells; host or cells: CHO

[13] = test system: CD1 male mice; assay: Tail flick antinociception, oral by gavage, CD1 male mice; type: in vivo; conditions: Mus musculus, orally by gavage
[14] = test system: rats; assay: Tail flick analgesia, sc, rats; type: in vivo; conditions: Rattus norvegicus, 0.25 h, rats (n=3), 15 mins, cumulative dosing
[15] = test system: mice; assay: Conditioned place preference / aversion; conditions: VM1502 1.3 and 3.2 mg/kg/d, 2 days conditioning
[16] = test system: CD1 male mice; assay: Tolerance study, chronic twice daily dosing, tail flick; conditions: for ED50: Mus musculus, sc
[17] = test system: mice; assay: Physical dependence, naloxone-precipitated jumping; conditions: VM1502 2x daily 2x ED50, challenge on days 5, 22, 29; 15 min count
[18] = molecular target: T3, DOR-1; assay: [35S]GTPγS functional assay, DOR-1 transfected cell membranes; type: biochemical
[19] = FIG. 8C: VM1501 2.5 mg/kg sc (5x ED50), morphine 10 mg/kg, 50 min post-injection
[20] = 0 h, read-out: analgesic ED50, naïve (day 0)
[21] = FIG. 12D, 2x antinociceptive ED50: VM1502 1.2 mg/kg sc, morphine 5 mg/kg
[22] = FIG. 12D, 5x antinociceptive ED50: VM1502 3 mg/kg sc, morphine 10 mg/kg
[23] = FIG. 14, 5x antinociceptive ED50: VM1502 3.75 mg/kg sc, VM1512 5.0 mg/kg sc, morphine 10 mg/kg
[24] = antagonism of 100 nM U50,488H, read-out: KOR-1 IC50
[25] = 125I-IBNtxA (0.1 nM), CHO membranes, cloned mouse receptor, read-out: Affinity (Ki nM) KOR-1
[26] = agonist stimulation of [35S]GTPγS binding, read-out: MOR-1 EC50
[27] = antagonism of 100 nM DPDPE, read-out: DOR-1 IC50
[28] = 125I-IBNtxA (0.1 nM), CHO membranes, cloned mouse receptor, read-out: Affinity (Ki nM) DOR-1

CC[C@@H]1CN2CCc3c([nH]c4cccc(OC)c34)[C@@H]2C[C@@H]1/C(=C\OC)C(=O)OC [VM1500, (E)-Methyl-2-((2S,3S,12bS)-3-ethyl-8-methoxy-1,2,3,4,6,7,12,12b-octahydroindolo[2,3-a]quinolizin-2-yl)-3-methoxyacrylate]
Analgesia icv [1]: 42 µg
ED50 [2]: 166 mg/kg
Emax [3]: 65%

CC[C@@H]1CN2CC[C@@]3(O)C(=Nc4cccc(OC)c43)C2C[C@@H]1/C(=C\OC)C(=O)OC (stereo partly drawn) [VM1501, (E)-methyl-2-((2S,3S,7aS)-3-ethyl-7a-hydroxy-8-methoxy-1,2,3,4,6,7,7a,12b-octahydroindolo[2,3-a]quinolizin-2-yl)-3-methoxyacrylate]
analgesic response after antisense downregulation [4]: diminished in MOR-1-downregulated mice
IC50 [5]: 2.52 µM
gastrointestinal transit ([6]; FIG. 8D: VM1501 0.5 and 1 mg/kg): did not lower transit significantly compared with saline
Analgesia icv [1]: 0.06 µg
Ki [7]: 132 nM
ED50 [2]: 0.46 mg/kg
EC50 [3]: 0.053 µM
Ki [8]: 0.037 µM
antinociception after NTI (0.5 mg/kg sc) and norBNI (10 mg/kg sc) [9]: insensitive to NTI and norBNI
antinociception after β-FNA (40 mg/kg sc) [9]: antagonized by β-FNA
ED50 antinociception icv, Exon11 knockout ([10]; 129/Sv Exon11 knockout mice): 0.83 µg
ED50 antinociception icv, wild type ([10]; 129/Sv wild type mice): 0.022 µg
respiratory rate [11, 19]: did not depress respiratory rate
Ki [12]: 91 nM

CC[C@@H]1CN2CC[C@]3(Nc4cccc(OC)c4C3=O)C2C[C@@H]1/C(=C\OC)C(=O)OC (stereo partly drawn) [VM1502, (E)-methyl 2-((1'S,6'S,7'S)-6′-ethyl-4-methoxy-3-oxo-3′,5′,6′,7′,8′,8a′-hexahydro-2′H-spiro[indoline-2,1′-indolizine]-7′-yl)-3-methoxyacrylate]
analgesic response after antisense downregulation [4]: only affected in MOR-1-downregulated mice
ED50 [13]: 7.5 mg/kg
IC50 [5]: 0.031 µM
gastrointestinal transit ([6]; FIG. 12C: VM1502 1.5 and 4 mg/kg): lowered transit significantly compared with saline (P<0.05) but less than morphine at both doses
Analgesia icv [1]: 0.38 µg
ED50 [14]: 1.4 mg/kg
Ki [7]: 24 nM
conditioned place preference or aversion [15]: did not produce conditioned place preference or aversion
ED50 [2]: 0.76 mg/kg
ED50 [16, 20]: 0.63 mg/kg
ED50 ([16]; 120 h, read-out: analgesic ED50, day 5): 1.1 mg/kg
ED50 ([16]; 288 h, read-out: analgesic ED50, day 12): 1.8 mg/kg
ED50 ([16]; 528 h, read-out: analgesic ED50, day 22): 2 mg/kg
ED50 ([16]; 696 h, read-out: analgesic ED50, day 29): 4.5 mg/kg
onset of analgesic tolerance ([16]; dosed 2x daily with 2x antinociceptive ED50): very slow onset of tolerance compared with morphine
EC50 [3]: 0.0017 µM
physical dependence: number of jumps after naloxone (1 mg/kg) [17]: not significantly greater than that of mice treated with saline
IC50 [18]: 0.061 µM
Ki [8]: 0.0008 µM
antinociception after NTI (0.5 mg/kg sc) and norBNI (10 mg/kg sc) [9]: insensitive to NTI and norBNI
antinociception after β-FNA (40 mg/kg sc) [9]: antagonized by β-FNA
respiratory rate [11, 21]: did not depress respiratory rate
respiratory rate [11, 22]: showed signs of respiratory depression albeit significantly less than the equianalgesic dose of morphine
respiratory rate [11, 23]: showed signs of respiratory depression albeit significantly less than the equianalgesic dose of morphine
Ki [12]: 3 nM

CC[C@@H]1CN2CC[C@]3(Nc4ccccc4C3=O)C2C[C@@H]1/C(=C\OC)C(=O)OC (stereo partly drawn) [VM1508, (E)-methyl 2-((1'S,6'S,7'S)-6′-ethyl-3-oxo-3′,5′,6′,7′,8′,8a′-hexahydro-2′H-spiro[indoline-2,1′-indolizine]-7′-yl)-3-methoxyacrylate]
IC50 [5, 24]: 0.252 µM
Ki [7, 25]: 19 nM
ED50 [2]: 0.24 mg/kg
EC50 [3, 26]: 0.0014 µM
Emax [3]: 116%
IC50 [18, 27]: 0.193 µM
Ki [8]: 0.00046 µM
Ki [12, 28]: 2.9 nM

CC[C@@H]1CN2CC[C@]3(Nc4cccc(C#N)c4C3=O)C2C[C@@H]1/C(=C\OC)C(=O)OC (stereo partly drawn) [VM1509, (E)-methyl 2-((1'S,6'S,7'S)-4-cyano-6′-ethyl-3-oxo-3′,5′,6′,7′,8′,8a′-hexahydro-2′H-spiro[indoline-2,1′-indolizine]-7′-yl)-3-methoxyacrylate]
IC50 [5, 24]: 0.721 µM
Ki [7, 25]: 47 nM
ED50 [2]: 0.32 mg/kg
EC50 [3, 26]: 0.0007 µM
Emax [3]: 122%
IC50 [18, 27]: 0.073 µM
Ki [8]: 0.0005 µM
Ki [12, 28]: 2.4 nM

CC[C@@H]1CN2CC[C@]3(Nc4cccc(-c5ccccc5)c4C3=O)C2C[C@@H]1/C(=C\OC)C(=O)OC (stereo partly drawn) [VM1511, (E)-methyl 2-((1'S,6'S,7'S)-6′-ethyl-3-oxo-4-phenyl-3′,5′,6′,7′,8′,8a′-hexahydro-2′H-spiro[indoline-2,1′-indolizine]-7′-yl)-3-methoxyacrylate]
IC50 [5, 24]: 0.171 µM
Ki [7, 25]: 51 nM
ED50 [2]: 1 mg/kg
EC50 [3, 26]: 0.0014 µM
Emax [3]: 123%
EC50 ([18]; agonist stimulation of [35S]GTPγS binding): 0.00083 µM
Emax ([18]; percent maximal stimulation relative to DPDPE, read-out: DOR-1 Emax (value in parentheses after EC50)): 89%
Ki [8]: 0.00091 µM
Ki [12, 28]: 0.8 nM

CC[C@@H]1CN2CC[C@]3(Nc4cccc(-c5ccoc5)c4C3=O)C2C[C@@H]1/C(=C\OC)C(=O)OC (stereo partly drawn) [VM1512, (E)-methyl 2-((1'S,6'S,7'S)-6′-ethyl-4-(furan-3-yl)-3-oxo-3′,5′,6′,7′,8′,8a′-hexahydro-2′H-spiro[indoline-2,1′-indolizine]-7′-yl)-3-methoxyacrylate]
IC50 [5, 24]: 0.202 µM
Ki [7, 25]: 39 nM
ED50 [2]: 1.1 mg/kg
EC50 [3, 26]: 0.0015 µM
IC50 [18, 27]: 0.039 µM
Ki [8]: 0.00094 µM
respiratory rate [11, 23]: showed no signs respiratory depression
Ki [12, 28]: 1.5 nM

CC[C@@H]1CN2CC[C@@]3(O)C(=Nc4ccccc43)[C@@H]2C[C@@H]1/C(=C\OC)C(=O)OC [VM1522, Methyl (E)-2-((2S,3S,7aS,12bS)-3-ethyl-7a-hydroxy-1,2,3,4,6,7,7a,12b-octahydroindolo[2,3-a]quinolizin-2-yl)-3-methoxyacrylate]
Analgesia icv [1]: 0.1 µg
Ki [7, 25]: 781 nM
EC50 [3, 26]: 0.034 µM
Emax [3]: 116%
Ki [8]: 0.023 µM
Ki [12, 28]: 147 nM

CC[C@@H]1CN2CCc3c([nH]c4cccc(O)c34)[C@@H]2C[C@@H]1/C(=C\OC)C(=O)OC [VM1532, Methyl (E)-2-((2S,3S,12bS)-3-ethyl-8-hydroxy-1,2,3,4,6,7,12,12b-octahydroindolo[2,3-a]quinolizin-2-yl)-3-methoxyacrylate]
Analgesia icv [1]: 9 µg
Ki [7, 25]: 769 nM
EC50 [3, 26]: 0.422 µM
Emax [3]: 62%
Ki [8]: 0.207 µM
Ki [12, 28]: 532 nM

CC[C@@H]1CN2CCc3c([nH]c4ccccc34)[C@@H]2C[C@@H]1/C(=C\OC)C(=O)OC [VM1540, Methyl (E)-2-((2S,3S,12bS)-3-ethyl-1,2,3,4,6,7,12,12b-octahydroindolo[2,3-a]quinolizin-2-yl)-3-methoxyacrylate]
Analgesia icv [1]: 0.1 µg
Emax [3]: 74%

CN1CC[C@]23c4c5ccc(O)c4O[C@H]2[C@@H](O)C=C[C@H]3[C@H]1C5 [morphine, reference compound]
Analgesia icv [1]: 0.53 µg
ED50 [2]: 4.6 mg/kg
ED50 [16, 20]: 2 mg/kg
respiratory rate [11, 19]: caused respiratory depression
respiratory rate [11, 21]: caused respiratory depression
respiratory rate [11, 22]: caused respiratory depression
respiratory rate [11, 23]: caused respiratory depression
